Data from article PMC12057046, “Elucidation of short linear motif-based interactions of the MIT and rhodanese domains of the ubiquitin-specific protease 8” (Biology Direct, 2025).

How the values were obtained:
Assay type in all cases: binding, human
USP8 MIT domain [1] = assay: Peptide-phage display-based deep mutational scanning (DMS), USP8 MIT domain; settings: for DMS-derived binding motif: M13 phage, triplicate selections in biological replicates, NGS, PSSM
How it was run: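 Four rounds of phage selection against immobilized GST-tagged bait (GST control pre-clearing) at 4 °C, using human disorderome or 16-mer deep mutational scanning library (all non-Cys substitutions), ≥3 replicates. Enriched pools sequenced by Illumina NGS; replicate-summed counts converted to averaged fractions and frequency PSSMs per wild-type peptide.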

USP8 MIT domain [2] = assay: Proteomic peptide-phage display (ProP-PD) selection against USP8 MIT domain; set-up: Confidence: scale not given here; settings: for NGS counts (%): ProP-PD, human disorderome library, GST-tagged MIT bait, four rounds of selection, percent of NGS counts associated with each peptide, Fig. 1B; for max_counts: Total NGS counts; for Confidence: calculated based on four metrics: overlapping peptides, replicated peptides, motif match, peptide counts; for Counts: fraction of NGS counts for a selection; for Promiscuity: number of baits selections where the peptide has been observed, calculated on the domain level; for Replicates: number of screens against the bait protein in which the peptide has been found; for Specificity: proportion for the current bait of the total NGS read counts of the peptide for all baits screened with this library
Procedure: We explored the peptide-binding of the USP8 MIT domain by using the purified GST-tagged MIT domain as bait in proteomic peptide-phage display (ProP-PD) selections and a library designed to display the predicted unstructured regions of the human proteome. The peptide-coding regions of the binding-enriched phage pools were analysed by next-generation sequencing (NGS). After filtering for high confidence ligands, ten ligands remained (Fig. 1B; Supplementary Table S1). None of the ten identified protein-protein interactions had been previously reported, based on comparison with the information available in IntAct, HIPPIE and BioGrid (February 2025). Of the USP8 interacting proteins found, the D site-binding protein (DBP), which is a clock-controlled transcription factor, appears as an interesting ligand as USP8 has been reported to be involved in controlling the circadian rhythm. Also, the CCDC88A-encoded protein Girdin is an interactor of potential biological relevance as it is a scaffolding protein involved in the EGFR pathway which USP8 is known to regulate. At the motif level, there was no shared consensus motif among the ten peptide ligands. However, by manual inspection we noticed that four of the peptides contained a shared [LI]xxR[IY]xxL sequence, which appears to be a variation of the [DE]xxLxxRLxxL[KR] MIM1 motif described in the Eukaryotic Linear Motif resource (ELM) (Fig. 1B). We performed a SPOT array alanine scanning analysis in which peptides are synthesised on a membrane, and where each amino acid position of the peptide is mutated to alanine (or glycine if alanine is in the wild type peptide) to evaluate the effect of the amino acid residues in binding. We tested two peptides containing the apparent MIM1-like motif, one from Girdin (Girdin1192 − 1207) and one from the histone-lysine N-methyltransferase SETD1B (SETD1B492 − 507). […] AlphaFold3 (AF3) modelling of the four peptides with the variant MIM1 motif and the MIT domain docked the peptides with high confidence (ipTM scores: HIVEP1_741 − 756: 0.87, Girdin1192 − 1207: 0.85, MLPH481 − 496: 0.82, SETD1B492 − 507: 0.75) at the expected MIM1 binding pocket (Fig. 1D). […] However, the USP8 MIT selection was dominated (more than 94% of NGS counts) by two peptides that lack an apparent MIM1 motif. The two peptides were from the EF-hand calcium-binding domain-containing protein 12 (EFCAB12_1 − 16: […]) and from DBP (DBP116 − 131: […]) (Fig. 1B). […] In comparison to this, the EFCAB12_1 − 16 peptide shares a potential Dx[YF]xxxH[SG] motif with the DBP116 − 131 (Fig. 1B). […] The AF3 model of DBP116 − 131 peptide supports the interaction of D120 of the DBP116 − 131 peptide with the residues K74 and N71 in the MIT domain (Fig. 1G), emphasizing the significance of the aspartic acid at this position. […] Of them, two peptides (SYNE2_853 − 868 and PKNOX1_56 − 71) where placed in the same binding site as the Girdin and DBP peptides with high confidences by AF3 modelling (ipTM 0.92 and 0.74; Supplementary Fig. S3).
Four rounds of phage selections were carried out using the second generation human disorderome library or the constructed deep mutational scanning library. At least three individual replicates were used for each bait protein. 10 µg of GST-tagged proteins or GST control (diluted in PBS from the stock of proteins kept in the purification elution buffer) were immobilized in 100 µL PBS on a 96-well MaxiSorp (Nunc) plate overnight at 4 °C. The plates were incubated with blocking buffer (with 0.5% BSA in PBS) for 1 h at 4 °C followed by washing with 0.05% Tween 20 in PBS four times. The naïve phage library (10^11 CFU) was diluted in 1/5th volume PEG/NaCl (20% PEG-8000, 0.4 M NaCl) and 1X PBS, incubated on ice for 10 min and centrifuged at 10,000 [drawing 3] g for 10 min. The pellet was resuspended in the volume of PBS (100 µL/ well). […]

USP8 MIT domain [3] = assay: SPOT array of predicted peptides from known interactors, USP8 MIT domain; settings: for Percentage (%) normalized to highest intensity and corrected for background: SPOT array, GST-tagged MIT 100 µM, overnight 4 °C, chemiluminescence, highest intensity = DNAJB6; for Percentage (%): Supplementary Fig. 4B, normalized to the highest intensity and corrected for background
Source text: To further assess the SLiM-based interactions of the USP8 MIT domain, we designed a peptide array tiling 24 potential binding sites in previously reported USP8 interactors. We used SLiMSearch to search for peptides that contain shorter or longer matches to the motif (Supplementary Table S4A). […] The DNAJB6_118 - 130 peptide was predicted as a binder based on a partial DFx{2,3}R motif. The DNAJB6-USP8 interaction is supported by previous GST-pulldown experiments and colocalization of the two proteins in male mouse germ cells, and the interaction is thought to be of importance to the protein quality control to yield functional spermatozoa. In the case of the CDH1_863 - 877 peptide it was predicted as USP8 MIT ligand based on the presence of an RFxxL motif. The previous support of the CDH1-USP8 interaction is based on proximity labelling mass spectrometry, and our results thus provide evidence for a binary interaction between the two proteins and define a binding site. To confirm that the motifs used to predict the interactions were of importance for binding we designed an alanine scanning peptide SPOT array analysis of the DNAJB6_118 - 130 and the CDH1_863 - 877 peptides. […] In summary, we find that the USP8 MIT domain binds to a MIM1-like motif that can be expressed by [[…]], as well as degenerate variants thereof. […] The membranes of predicted peptides were purchased by JPT Peptide Technologies (Berlin, Germany). The membranes were incubated with blocking buffer containing 5% skim milk in TBST (50 mM Tris, 150 mM NaCl pH 7.5, 0.05% Tween-20) for two hours at room temperature. The blocked membranes were incubated with GST-tagged proteins (100 μM for MIT domain and 150 μM for the Rhodanese domain) in blocking buffer overnight at 4 °C. After rinsed with TBST the membranes were incubated with HRP-conjugated anti-GST antibody (Cytiva, RPN1236; 1:3000 dilution) in blocking buffer for 1 h at 4 °C and subsequently rinsed with TBST to remove any excess antibody. The ECL reagent (Clarity Max Western ECL substrate, 1705062, BioRad) was used for chemiluminescence read-out with the ChemiDoc Imaging system (BioRad). The images were analysed with Fiji (ImageJ2 version 2.9.0). […] used to design the peptide arrays with known interactors predicted to contain the motifs. The background signal intensity was subtracted, and the corrected signal intensities were normalized to the positive control and presented as percentage.

Sequence: SEVSDIESRIAALRAA [MLPH481 − 496, melanophilin peptide]
- DMS-derived binding motif (USP8 MIT domain [1]): [DE]Fx{2,3}R[FY]xxLL
- NGS counts (%) (USP8 MIT domain [2]): 0.52%
- max_counts (USP8 MIT domain [2]): 33
- Confidence (USP8 MIT domain [2]): 3
- Counts (USP8 MIT domain [2]): 0.000511
- Promiscuity (USP8 MIT domain [2]): 2
- Replicates (USP8 MIT domain [2]): 3
- Specificity (USP8 MIT domain [2]): 0.9365

Sequence: MDDDYEAYHSLFLSLL [EFCAB12_1 − 16]
- PSSM score, enrichment_relative_to_wt (USP8 MIT domain [1]; EFCAB12 MDDDYEAYHSLFLSLL, library USP8_DMS, days 2,3, quotient of wild type and mutant frequencies per column, highest divided by lowest): 1
- DMS-derived binding motif (USP8 MIT domain [1]): [DE]Fx{2,3}R[FY]xxLL
- NGS counts (%) (USP8 MIT domain [2]): 78.22%
- max_counts (USP8 MIT domain [2]): 3851
- Confidence (USP8 MIT domain [2]): 3
- Counts (USP8 MIT domain [2]): 0.08013
- Promiscuity (USP8 MIT domain [2]): 6
- Replicates (USP8 MIT domain [2]): 6
- Specificity (USP8 MIT domain [2]): 0.9605

Sequence: GELLLLSLLLLLEP [PDGFRB, Platelet-derived growth factor receptor beta peptide]
- Percentage (%) normalized to highest intensity and corrected for background (USP8 MIT domain [3]): -3.37%
- Percentage (%) (USP8 MIT domain [3]): -3%

Sequence: QGPALRYFQLPPRAA [SHANK1 B6, SHANK1 peptide, array position B6]
- Percentage (%) normalized to highest intensity and corrected for background (USP8 MIT domain [3]): 7%
- Percentage (%) (USP8 MIT domain [3]): 7%

Sequence: DDLSRRFEELKKKT [IST1, IST1 homolog peptide]
- Percentage (%) normalized to highest intensity and corrected for background (USP8 MIT domain [3]): 5%
- Percentage (%) (USP8 MIT domain [3]): 5%

Sequence: AGAALLALLAALCP [EGFR, Epidermal growth factor receptor peptide]
- Percentage (%) normalized to highest intensity and corrected for background (USP8 MIT domain [3]): 6%
- Percentage (%) (USP8 MIT domain [3]): 6%

Sequence: KEPDALTLLAPAAG [HIF1A, Hypoxia-inducible factor 1-alpha peptide]
- Percentage (%) normalized to highest intensity and corrected for background (USP8 MIT domain [3]): -0.189%
- Percentage (%) (USP8 MIT domain [3]): 0%

Sequence: PPSSSLELLASLTP [PTPN23, Tyrosine-protein phosphatase non-receptor type 23 peptide]
- Percentage (%) normalized to highest intensity and corrected for background (USP8 MIT domain [3]): -7%
- Percentage (%) (USP8 MIT domain [3]): -7%

Sequence: DPSNNFRLHNGRS [CFLAR, CASP8 and FADD-like apoptosis regulator peptide]
- Percentage (%) normalized to highest intensity and corrected for background (USP8 MIT domain [3]): 31%
- Percentage (%) (USP8 MIT domain [3]): 31%

Sequence: TEQETLALLEVKRS [TMEM79, Transmembrane protein 79 peptide]
- Percentage (%) normalized to highest intensity and corrected for background (USP8 MIT domain [3]): -4%
- Percentage (%) (USP8 MIT domain [3]): -4%

Sequence: NKTLEYKIEILEKT [KIF23, Kinesin-like protein KIF23 peptide]
- Percentage (%) normalized to highest intensity and corrected for background (USP8 MIT domain [3]): 7%
- Percentage (%) (USP8 MIT domain [3]): 7%

Sequence: PQYTNLGLLNSMDQ [TP63 A14, Tumor protein 63 peptide, array position A14]
- Percentage (%) normalized to highest intensity and corrected for background (USP8 MIT domain [3]): 8%
- Percentage (%) (USP8 MIT domain [3]): 8%

Sequence: QAAIALSLLESPKI [USP28, Ubiquitin carboxyl-terminal hydrolase 28 peptide]
- Percentage (%) normalized to highest intensity and corrected for background (USP8 MIT domain [3]): 1.29%
- Percentage (%) (USP8 MIT domain [3]): 1%

Sequence: APLLCLALLPALAA [NOTCH1, Neurogenic locus notch homolog protein 1 peptide]
- Percentage (%) normalized to highest intensity and corrected for background (USP8 MIT domain [3]): 2%
- Percentage (%) (USP8 MIT domain [3]): 2%

Sequence: DKEIDLELLQDLME [BIRC6, Baculoviral IAP repeat-containing protein 6 peptide]
- Percentage (%) normalized to highest intensity and corrected for background (USP8 MIT domain [3]): 12%
- Percentage (%) (USP8 MIT domain [3]): 12%

Sequence: RGVLALALLALALC [RNF149, E3 ubiquitin-protein ligase RNF149 peptide]
- Percentage (%) normalized to highest intensity and corrected for background (USP8 MIT domain [3]): 3%
- Percentage (%) (USP8 MIT domain [3]): 3%

Sequence: SRGLQLLLLSCAYS [CD83, CD83 antigen peptide]
- Percentage (%) normalized to highest intensity and corrected for background (USP8 MIT domain [3]): 5.58%
- Percentage (%) (USP8 MIT domain [3]): 6%
